“Also recorded” adds a separate entry of the source.

The subject of the assay is AECs from COPD lungs. The assay is described as follows: AECs from COPD lungs treated in vitro for 48 h. Format: cell-based, human. On the procedure:
Primary Airway Epithelial Cells (AECs); Normal, Human (ATCC® PCS-301-010™) and Primary Airway Epithelial Cells; COPD (ATCC® PCS-301-013™) were obtained from the ATCC and cultured in Airway Cell Basal Medium with glutamine, Extract P, HLL Supplement, and AEC Supplement. containing and 1% penicillin-streptomycin. The cells were maintained at 37° C. in a humidified atmosphere at 5% CO2. All media, supplements, and antibiotics were purchased from ATCC.
CSP7 and CP were dissolved in DMSO and diluted in HBSS for working concentration of 300 µg/2 ml. These peptides were used for the treatment of COPD in vitro and IP injection of mice. For nasal insufflation, the peptides were formulated as follows: 0.579 mg/ml of CSP7/CP was added to 15.456 mg/ml of lactose monohydrate in phosphate buffered saline and the pH was adjusted to 8.4 to give a clear solution. The solution was filtered through a 0.22-micron syringe filter (Bhandary et al. supra; Tiwari et al., supra).
The cells were lysed with RIPA buffer (Pierce, USA) containing protease inhibitor cocktail (Roche, Germany) and phosphatase inhibitor cocktail (Sigma-Aldrich, USA) on ice for 30 min. After centrifugation at 12,000×g and 4° C. for 20 min, the supernatants were collected. The protein concentrations were determined using the BCA protein assay kit (Pierce, USA). Cell lysates were mixed with 5×SDS-PAGE sample buffer and boiled for 5 min. Thirty micrograms of protein was subjected to 10% SDS-PAGE electrophoresis and transferred to nitrocellulose membranes. The membranes were blocked with 5% milk and then incubated at 4° C. for 16 h with the following diluted primary antibodies (Tiwari et al., supra). The blots were then washed and probed with horseradish peroxidase-conjugated secondary IgG antibodies. The bound antibodies were visualized using SuperSignal™ Maximum Sensitivity Substrate (Thermo Fisher Scientific, USA). For normalization, the membranes were stripped with Restore Western blot stripping buffer and incubated with the following primary antibodies: anti-ERK (1:1000), anti-MUC5AC (1:1000), anti-HDAC6(1:1000), anti-SPDEF(1:1000), anti-FOXA2(1:1000), anti-FOXA3 (1:1000) anti-LC3(1:1000), anti-Beclin1(1:1000), anti-p62(1:1000), anti-p53(1:1000), anti-PAI-1(1:1000) and anti-GAPDH (1:1000).
Cell culture. Primary human AECs from histologically normal and COPD lungs were purchased from ATCC. These cells were cultured in AEC Basal Medium with glutamine, extract P, HLL Supplement, and AEC supplement and 1% penicillin-streptomycin at 37° C. and 5% CO2. AT2 cells were isolated from C57BL/6 mice following the method of Corti and colleagues (Roscioli et al, 2018) with minor modifications. The cells were plated on plastic culture dishes precoated with anti-CD-32 and anti-CD-45 antibodies for 2 h at […]. Non-adherent cells were collected, and the purity of AT2 cell preparations was assessed by […] for inclusion bodies (Shetty et al, 2012).
Peptide preparation. CSP7 and CP were dissolved in DMSO and diluted in HBSS as described elsewhere (Marudamuthu et al., SciTransl Med 11: eaat2848, 2019. doi: 10.1126/scitranslmed.aat2848). These peptides were used to treat AECs in vitro or IP injection of CS-exposed mice. For airway delivery by liquid nebulization, CSP7 (0.579 mg/ml) was added to PBS containing lactose monohydrate (15.456 mg/ml). The pH was adjusted to 8.4 to give a clear solution, filtered through a 0.22-micron syringe filter as described earlier (Marudamuthu et al., 2019.)
Protein extraction and Western blot assay. AEC and AT2 cell lysates were prepared using RIPA buffer (Pierce, USA) containing a protease inhibitor cocktail (Roche, Germany) and phosphatase inhibitor cocktail (Sigma-Aldrich, USA). AEC and AT2 cell lysates were subjected to Western blotting using ERK, MUC5AC, HDAC6, SPDEF, FOXA2, FOXA3, LC3, p53, PAI-1, Acp53, S15p53, cleaved caspase-3, β-galactosidase and R-actin antibodies at 1:500-1:1000 dilution (Table 1). […]

As for “WGIDKAFFTTSTVTYKWFRY [CP, scrambled control peptide with the same amino acid composition as CSP, reference compound]”, the ERK phosphorylation entry is “still showed elevated phospho-ERK1/2”.

Turning to “FTTFTVT (listed as Homo sapiens) [CSP7, heptapeptide fragment of the caveolin-1 scaffolding domain peptide CSP]”, the “Beclin-1 and ATG5 expression” value was “mitigate”; the ERK phosphorylation entry is reported as “decrease in ERK phosphorylation; also recorded: reversed in AECs exposed to CSP7”; the “FOXA2, acetylated alpha-tubulin, CAV1, p53 and PAI-1 proteins” value was “restoration of FOXA2 and acetylated alpha-tubulin, and inhibition of CAV1, p53 and PAI-1”; the LC3-II accumulation entry is given as “reversed”. In addition, the MMP12 expression entry is recorded as “decreased; also recorded: markedly reduced the MMP12 level”; the “PP2A and CIP2A protein (Western blot)” value is reported as “reversed”; the “PP2A mRNA” value is given as “improved”; the p62 expression result is on record as “significantly elevated”. Also, the “MUC5AC, HDAC6, PAI-1, p53, Cav1, FOXA3, SPDEF, LC3, FOXA2, Ac-Tub proteins (Western blot)” value (48 h) is reported as “reversed; also recorded: reduced the expression of MUC5AC, HDAC6, FOXA3, SPDEF and, LC3”.

The values are drawn from patent US20240082342A1, “PEPTIDE THERAPEUTICS FOR INCREASING LUNG CELL VIABILITY” (BOARD OF REGENTS, THE UNIVERSITY OF TEXAS SYSTEM, priority 2018, published 2024).
